# Data as given in the METLIN SMRT retention time set (Domingo-Almenara et al. 2019).
# Assay: gradient 5% acetonitrile 3 min, to 50% in 2 min, to 85% in 15 min, held 3 min, 100 µL/min
# Conditions: column: Zorbax Extend-C18 2.1 x 50 mm; eluents: water / acetonitrile, 0.1% formic acid
# Procedure, shortened: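 Using water and acetonitrile that each contained 0.1% formic acid, mixtures of ~100 pure standards were separated at 100 μL/min on a Zorbax Extend-C18 column (2.1 × 50 mm, 1.8 μm). The HPLC fed a quadrupole time-of-flight mass spectrometer working in positive and negative ionization mode, with dead and dwell volumes of 40 μL and 900 μL. Data were acquired over 3 months. Retention time was read from computationally picked adduct peaks after manual inspection of each.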
row,SMILES,RP-LC retention time [s]
1,COc1ccc(-n2cc(C(=O)Nc3cnc4ccccc4c3)nn2)cc1,821
2,O=C(CN1C(=O)CSc2ccc(C(=O)N3CCCCC3)cc21)NCCCN1CCCCC1,610
3,Cn1nc(-c2nc(C3CC3)no2)c2c1CCN(C(=O)c1ccc(C(F)(F)F)s1)C2,970
4,CNc1nc(Nc2ccccc2F)nc2ccccc12,634
5,COc1ccccc1N1CCN(c2cc(SCC(=O)Nc3ccc(C(C)C)cc3)ncn2)CC1,1140
6,COc1ccc2cc(C(=O)N3CCC(CC(=O)NCCc4c[nH]c5ccc(OC)cc45)CC3)[nH]c2c1,759
7,COc1ccccc1Nc1c(-c2ccc(Br)cc2)nc2cnccn12,1080
8,O=S(=O)(NC1CCCCCCC1)c1ccc2c(c1)-c1oncc1CO2,1030
9,COc1ccc(-c2ncc3c(n2)CCN(S(=O)(=O)c2ccc(C)c(Cl)c2)C3)cc1,1180
10,COc1ccc(S(=O)(=O)N2CCCC(c3nnnn3-c3ccccc3)C2)cc1 (centres undefined),905
11,CCOC(=O)CCCn1c(=O)c2cccn2c2ccc(F)cc21,847
12,Cc1c(C(=O)N(C)C)cnn1-c1cc(-c2nc(C(C)(C)C)no2)ccn1,922
13,CC(C)c1noc(-c2ccnc(-n3cnc(C(=O)N(C)C4CCCCC4)c3)c2)n1,622
14,O=C(Nc1cccc(-c2nnc3n2CCCC3)c1)C1CCCCC1,699
15,O=C(NCCc1cccs1)c1cccc2[nH]cc(CN3CCOCC3)c12,592
16,CN1C(=O)c2cc(C(=O)NCc3cccc(Cl)c3)nn2CC1(C)C(=O)NC1CCCCC1 (centres undefined),793
17,Cc1cc(C(=O)Nc2ccccc2I)n(-c2ccccc2)n1,974
18,COCC(=O)NC1CCC12CCN(C(=O)c1ccoc1)CC2 (centres undefined),643
19,Cc1nn(-c2ccccc2)c(C)c1S(=O)(=O)N1CCC(C(=O)Nc2ccc(F)cc2Cl)CC1,1000
20,Cc1ccn2cc(-c3ccc(NC(=O)c4cccc(C(F)(F)F)c4)cc3)nc2n1,716
21,O=C(NCc1csc(C2CCCN(C(=O)c3ccccc3F)C2)n1)C1CCC1 (centres undefined),727
22,COc1ccc(-c2nc(-c3ccc4oc(C)nc4c3)no2)c(C)c1,1170
23,O=C(N1CCC(Cc2nc(C3CCOCC3)no2)CC1)C1(c2ccccc2)CC1,817
24,O=C(Nc1ccc(Cl)cc1)c1oc2ccccc2c1NC(=O)C1CC1,1080

row,SMILES,RP-LC retention time [s]
1,COc1ccc(-n2nc(N3CCCC(C(=O)NCc4cccc(OC)c4)C3)ccc2=O)cc1 (centres undefined),763
2,C=CCN1C(=O)COc2ccc(-c3csc(NC(=O)CCC)n3)cc21,894
3,CC(C)n1c(=O)c(NCc2cccc(C(F)(F)F)c2)nc2ccncc21,725
4,COc1ccc(Cl)cc1NC(=O)C1(c2cccs2)CCCC1,1280
5,CCc1ccc(S(=O)(=O)N2CCn3c(nnc3C3CCN(C(C)C)C3)C2)cc1 (centres undefined),571
6,CCCN(CC1CCOC1)C(=O)Nc1cc(F)c(F)c(F)c1 (centres undefined),844
7,Cc1nc2sccn2c(=O)c1NC(=O)Nc1ccc(C(C)C)cc1,704
8,Cc1ccc(NC(=O)N2CCc3c(c(-c4nc(C5CC5)no4)nn3C)C2)c(C)c1,834
9,Cc1cc(Br)ccc1NC(=O)CCc1nc(C2=CCN(C)CC2)no1,642
10,COc1ccccc1-n1nnc(C(=O)NCc2nc3ccccc3n2C)c1-c1ccccn1,574
11,Cc1ccc(-c2nnc(-c3cccc(S(=O)(=O)NCc4cccnc4)c3)o2)cc1,696
12,C=C[C@H]1CN2CC[C@H]1C[C@@H]2[C@@H](O)c1ccnc2ccc(OC)cc12,616
13,CCCn1cc(S(=O)(=O)Nc2ccc(C)cc2)c2cccnc21,937
14,O=C(Nc1c(-c2ccc(F)cc2)nc2ccccn12)c1ccc(Br)cc1,716
15,O=C(Nc1ccc(OCc2nnc(-c3ccc(F)cc3)o2)cc1)c1cccnc1,720
16,COc1cccc(C(=O)NC2CCN(c3cc(C)cc(C)c3)C2=O)c1 (centres undefined),876
17,O=C(Nc1ccc2oc(-c3ccccc3)nc2c1)C1CCN(c2cnn(Cc3ccccc3)c(=O)c2)C1 (centres undefined),923
18,O=C1C2N=NN(c3ccc(F)cc3)C2C(=O)N1c1ccccc1 (centres undefined),914
19,COCCNC(=O)c1cn(C)c2ncccc12,582
20,COc1ccc2nc(NC(=O)CCCN3C(=O)C4C5C=CC(C5)C4C3=O)sc2c1 (centres undefined),817
21,CCc1ccc(N2C=C(C(=O)N3CCOCC3)S(=O)(=O)c3ccc(F)cc32)cc1,873
22,Cc1ccc(Nc2c(-c3ccccc3O)nc3ncccn23)c(C)c1,744
23,N#Cc1ccc(C(=O)Nc2cnn(-c3ncc(N4CCCCC4)cn3)c2)cc1,848
24,Cc1nc(-c2ccc(C(=O)NC3CCCC3)cc2)cs1,825

# Further lines, results first:
row,RP-LC retention time [s],SMILES
1,838,Cc1cc(C)cc(NC(=O)N2CCC(n3cnc4ccc(C)cc4c3=O)CC2)c1
2,934,COc1cccc(CNC(=O)C2(C)CCN(C(=O)Nc3ccc(Br)c(C)c3)CC2)c1
3,872,Cc1[nH]c(C(=O)N2CCC(CC(=O)NC3CCCCCC3)CC2)c(C)c1C
4,616,O=C(Nc1ccc(S(=O)(=O)Nc2nccs2)cc1)c1ccco1
5,975,COc1ccc(OC)c(-c2cn3ccn(-c4cc(C)cc(C)c4)c(=O)c3n2)c1
6,1290,Cc1sc2ncnc(N3CCCC(C)C3)c2c1C(=O)Nc1ccc(Cl)cc1 (centres undefined)
7,1270,CCC(CC)C(=O)Nc1nc(-c2ccc3c(c2)N(CC)C(=O)CO3)c(C)s1
8,626,Cc1ccnc(NS(=O)(=O)c2ccc(NC(=O)c3ccc4ncsc4c3)cc2)n1
9,735,O=C(NCc1cc(F)cc(F)c1)C1CCCN(c2ccc(-c3ccccc3)nn2)C1 (centres undefined)
10,794,Cc1ccc(NC(=O)C2CCCN2S(=O)(=O)c2cc3c(cc2C)NC(=O)CO3)cc1C (centres undefined)
11,831,Cc1nc2cccnc2n1CC1CCCN(S(=O)(=O)c2ccc3c(c2)CCCC3)C1 (centres undefined)
12,890,CC(C)n1cc(S(=O)(=O)Nc2ccc(F)cc2F)c2cccnc21
13,698,COc1ccc(-c2cn3c(CC(=O)N4CCN(c5ccccc5OC)CC4)csc3n2)cc1OC
14,1200,COc1cccc(S(=O)(=O)N2CCc3nc(-c4ccc(Cl)cc4)ncc3C2)c1
15,671,CN(C)CCCNC(=O)c1cc(-c2ccc(Cl)cc2)cn1C
16,700,COC(=O)C(Cc1ccccc1)NC(=O)Nc1cccn2cnnc12 (centres undefined)
17,918,CCc1nc2ccccc2c(=O)n1Cc1noc(-c2ccc(OC)cc2OC)n1
18,736,CCOC(=O)CNC(=O)CSc1nnc(NC(=O)c2nc3ccccc3s2)s1
19,933,CCOc1ccc(/C=C/c2nc3ccccc3n(C)c2=O)cc1
20,852,O=C(NCc1ccco1)Nc1ccc([N+](=O)[O-])cc1
21,1060,CC1CCN(CCCNC(=O)C2CCN(S(=O)(=O)c3ccc4c(c3)sc(=O)n4C)CC2)CC1

row,RP-LC retention time [s],SMILES
1,716,COc1ccc(N2CCN(c3nc(C(=O)N4CCOCC4)cs3)CC2)cc1
2,584,O=C(NCC1CCN(Cc2ccccc2F)CC1)C1CCN(c2ccc3nncn3n2)CC1
3,832,COc1ccc(-c2ccnc3nc(-c4cccs4)nn23)cc1OC
4,846,Cc1ccc(NS(=O)(=O)c2cc3n(c2)CCN(CC(C)C)C3=O)cc1C
5,1050,Cc1ccc(NC(=O)Cn2cccc2-c2nnc(C3CCC3)o2)c(Cl)c1
6,704,Cc1ccc(CNC(=O)C2CCCN(c3nnc4c(Cl)cccn34)C2)o1 (centres undefined)
7,774,CCOc1ncccc1C(=O)Nc1cccc(-c2csc3nc(C)cc(=O)n23)c1
8,784,O=C(c1cccc(F)c1)N1CCN(S(=O)(=O)c2cc3c4c(c2)CCC(=O)N4CCC3)CC1
9,700,O=C(NC1(c2nc(-c3cccnc3)no2)CCCCC1)c1cc(C2CC2)[nH]n1
10,946,O=S(=O)(c1ccc(Cl)c(-c2nnc(-c3ccccc3)o2)c1)N1CCOCC1
11,739,CCOC(=O)c1noc2nc(C)nc(NCCCN3CCN(c4cccc(C)c4)C(C)C3)c12 (centres undefined)
12,1110,Cc1nn(C(=O)C2CC2)c(C)c1Sc1ccccc1[N+](=O)[O-]
13,976,O=C(NCc1ccc(F)c(Cl)c1)c1csc(C(=O)NC2CCCC2)n1
14,824,COc1ccc(N2CC(c3nc(-c4ccc5c(c4)OCO5)no3)CC2=O)cc1OC (centres undefined)
15,856,Cc1cc(C)cc(NC(=O)C2CCc3sc(C(=O)N4CCOCC4)cc3C2)c1 (centres undefined)
16,803,CCNc1nc(C)cc(N2CCN(S(=O)(=O)c3cc(C(C)(C)C)ccc3OC)CC2)n1
17,758,COC(=O)Cn1c(C2CC(=O)N(c3cccc(C)c3)C2)nc2ccccc21 (centres undefined)
18,796,COc1ccccc1OCC(=O)NCCCS(=O)(=O)N1CCN(c2ccccc2)CC1
19,636,Cc1cc(C(=O)NC2CC2)c2cc(C(C)C)ccc2n1
20,770,O=C(c1ccc2cc[nH]c2c1)N1CCCN(c2cc(-c3ccc(Cl)cc3)[nH]n2)CC1
